Legend:
Format in all cases: in vivo
Echinochloa crus-galli = test: Post-emergence herbicidal action against ECHCG; details: 20 g a.i./ha, visual rating about 3 weeks after treatment
Description: (§1) Post-Emergence Herbicidal Action Against Harmful Plants and Crop Plant Compatibility Seeds of monocotyledonous and dicotyledonous weeds and crop plants are placed in sandy loam in plastic or wood-fibre pots, covered with soil and cultivated in a greenhouse under controlled growth conditions. 2 to 3 weeks after sowing, the test plants are treated at the one-leaf stage. The compounds of the invention, formulated in the form of wettable powders (WP) or as emulsion concentrates (EC), are then sprayed onto the green parts of the plants as aqueous suspension or emulsion with addition of 0.5% additive at a water application rate of 600 l/ha (converted). After the test plants have been kept in the greenhouse under optimum growth conditions for about 3 weeks, the activity of the preparations is rated visually in comparison to untreated controls. For example, 100% activity=the plants have died, 0% activity=like control plants. [table]

Pharbitis purpurea = test: Post-emergence herbicidal action against PHBPU; details: 20 g a.i./ha
Description: as §1

Lolium rigidum = test: Post-emergence herbicidal action against LOLRI; details: visual rating about 3 weeks after treatment
Description: as §1

Alopecurus myosuroides = test: Post-emergence herbicidal action against ALOMY; details: 20 g a.i./ha, visual rating about 3 weeks after treatment
Description: as §1

Avena fatua = test: Post-emergence herbicidal action against AVEFA; details: visual rating about 3 weeks after treatment
Description: as §1

Amaranthus retroflexus = test: Post-emergence herbicidal action against AMARE; details: 20 g a.i./ha
Description: as §1

DIGSA = test: Post-emergence herbicidal action against DIGSA; details: visual rating about 3 weeks after treatment
Description: as §1, with “plants.” for “plants. [table]”

Veronica persica = test: Post-emergence herbicidal action against VERPE
Description: as §1

Polygonum convolvulus = test: Post-emergence herbicidal action against POLCO; details: 20 g a.i./ha
Description: as §1

Setaria viridis = test: Post-emergence herbicidal action against SETVI; details: visual rating about 3 weeks after treatment
Description: as §1

Abutilon theophrasti = test: Post-emergence herbicidal action against ABUTH; details: 20 g a.i./ha, visual rating about 3 weeks after treatment
Description: as §1

Hordeum murinum = test: Post-emergence herbicidal action against HORMU
Description: as §1

Stellaria media = test: Post-emergence herbicidal action against STEME; details: 80 g a.i./ha
Description: as §1

Row | SMILES | Herbicidal action against [%] ECHCG (Echinochloa crus-galli) | Herbicidal action against [%] PHBPU (Pharbitis purpurea) | Herbicidal action against [%] LOLRI (Lolium rigidum; 20 g a.i./ha) | Herbicidal action against [%] ALOMY (Alopecurus myosuroides) | Herbicidal action against [%] AVEFA (Avena fatua; 20 g a.i./ha) | Herbicidal action against [%] AMARE (Amaranthus retroflexus) | Herbicidal action against [%] DIGSA (DIGSA; 20 g a.i./ha) | Herbicidal action against [%] VERPE (Veronica persica; 20 g a.i./ha) | Herbicidal action against [%] POLCO (Polygonum convolvulus) | Herbicidal action against [%] SETVI (Setaria viridis; 20 g a.i./ha) | Herbicidal action against [%] ABUTH (Abutilon theophrasti) | Herbicidal action against [%] LOLRI (Lolium rigidum; 80 g a.i./ha) | Herbicidal action against [%] HORMU (Hordeum murinum; 20 g a.i./ha) | Herbicidal action against [%] HORMU (Hordeum murinum; 80 g a.i./ha) | Herbicidal action against [%] AVEFA (Avena fatua; 80 g a.i./ha) | Herbicidal action against [%] DIGSA (DIGSA; 80 g a.i./ha) | Herbicidal action against [%] VERPE (Veronica persica; 80 g a.i./ha) | Herbicidal action against [%] SETVI (Setaria viridis; 80 g a.i./ha) | Herbicidal action against [%] STEME (Stellaria media)
1 | COC1(C(=O)NC2C=CC(C(=O)OCCSC(C)C)C2)CC(c2cc(F)cc(F)c2)=NO1 (stereo not shown) [Example I-25] | 80% | 80% | 90% | 90% | 90% | 80% | 90% | 80% | 80% | 90% | 80% |  |  |  |  |  |  |  | 
2 | C=CCSCCOC(=O)C1C=CC(NC(=O)C2(OC)CC(c3cc(F)cc(F)c3)=NO2)C1 (stereo not shown) [Example I-26] | 80% |  | 90% | 90% | 90% | 80% | 90% | 80% | 80% |  | 80% |  |  |  |  |  |  |  | 
3 | C=CC1(C(=O)NC2C=CC(C(=O)OCCSC)C2)CC(c2cccc(F)c2)=NO1 (stereo not shown) [Example I-35] | 90% | 80% | 90% | 90% | 90% | 80% | 90% | 80% | 90% | 90% |  |  |  |  |  |  |  |  | 
4 | C=CC1(C(=O)NC2C=CC(C(=O)OCCSC)C2)CC(c2cc(F)cc(C#N)c2)=NO1 (stereo not shown) [Example I-39] | 90% | 80% | 90% | 90% | 90% | 80% | 90% | 90% | 80% | 90% | 80% |  |  |  |  |  |  |  | 
5 | CSCCOC(=O)C1C=CC(NC(=O)C2(C)CC(c3cccc(C#N)c3)=NO2)C1 (stereo not shown) [Example I-41] |  |  |  | 80% | 90% |  |  |  |  | 80% |  | 80% | 80% | 90% | 100% | 80% | 80% | 80% | 80%
6 | COC1(C(=O)NC2C=CC(C(=O)OCCSC)C2)CC(c2cc(C)cc(F)c2)=NO1 (stereo not shown) [Example I-62] | 80% | 80% | 90% | 90% | 80% | 90% | 80% | 90% | 80% | 90% |  |  |  |  |  |  |  |  | 
7 | CSCCOC(=O)C1C=CC(NC(=O)C2(CF)CC(c3cc(F)cc(F)c3)=NO2)C1 (stereo not shown) [Example I-74] | 90% |  | 90% |  |  | 80% | 90% | 80% |  |  | 90% |  |  |  |  |  |  |  | 
8 | CSCCOC(=O)C1C=CC(NC(=O)C2(C)CC(c3cc(C)cc(Cl)c3)=NO2)C1 (stereo not shown) [Example I-75] | 90% | 80% |  | 90% | 80% |  | 90% | 80% |  | 90% | 80% |  |  |  |  |  |  |  | 
